12 compounds from patent US3944557A, “Pyridinium salts” (Commonwealth Scientific & Industrial Research Organization, priority 1973, dated 1976) can be followed below.

One experiment concerns Monolinia fructicola. Nature of the experiment: Inhibition of spore germination of M. fructicola. It is filed as cell-based. The conditions noted are these: Monilinia fructicola; Table 7; read-out: 50% inhibition of spore germination (Monolinia fructicola spore germination). The text has this: 50% inhibition of spore germination of M. fructicola
A further experiment deals with Phytophthora cinnamomi. Nature of the experiment: Protection of lupin seedlings from infection by P. cinnamomi. The conditions noted are these: Table 7. It is filed as in vivo. The text has this: Protection of lupin seedlings from infection by […]
For the next experiment, the system named is Rhizoctonia solani. Put plainly: Infection of cotton seedlings by Rh. solani (soil application). It is filed as in vivo. The conditions noted are these: Table 7, 16 kg/ha, read-out: Protection of cotton seedlings from infection by Rh. solani. The text has this: Infection of cotton seedlings by Rh. solani
100% protection at 16 kg/ha (soil application) ++
50% protection at 16 kg/ha (soil application) +

The test system of another experiment is Fusarium oxysporum. Nature of the experiment: Infection of tomato seedlings by F. oxysporum (soil application). It is filed as in vivo. The conditions noted are these: read-out: Protection of tomato seedlings from infection by F. oxysporum. The text has this:
Infection of tomato seedlings by F. oxysporum
100% protection 8 kg/ha (soil application) ++
50% protection at 8 kg/ha (soil application) +

A word on the minimal effective concentration: it is the smallest amount tested that counted as effective. A lower minimal effective concentration goes with an effect from little substance. Regarding `CCCCCCNc1cc(N)[n+](CCCCCC)c(NCCCC)c1C#N.[Cl-]` [Compound 42, 2-amino-6-n-butylamino-5-cyano-1-n-hexyl-4-n-hexylamino pyridinium chloride], in the experiment with Monolinia fructicola, the IC50 was no more than 5 µg/mL. In the experiment with Phytophthora cinnamomi, this compound gave a minimal effective concentration of no more than 2 µg/mL.
Compound `CCCCCCCCCCCCNc1c(C#N)c(NC)cc(N)[n+]1C` [Compound 27] yielded a minimal effective concentration in the experiment on Phytophthora cinnamomi of 30 µg/mL. Besides, the pest or weed control at 16000 g/ha in the experiment with Rhizoctonia solani amounted to 100%.
For `N#Cc1c(NCc2ccccc2)cc(N)[n+](Cc2ccccc2)c1Cl` [Compound 17], the IC50 in the experiment with Monolinia fructicola lay within 5 to 50 µg/mL. For the same compound, the minimal effective concentration with Phytophthora cinnamomi was 2 to 8 µg/mL. For the same compound, the pest or weed control at 8000 g/ha with Fusarium oxysporum was found to be 50%.
`CCCCCCCCNc1cc(N)[n+](CCCCCCCC)c(Cl)c1C#N.[Cl-]` [Compound 14, 2-amino-6-chloro-5-cyano-1-n-octyl-4-n-octylamino pyridinium chloride]: in the experiment with Monolinia fructicola, the IC50 is no more than 5 µg/mL. Further, the minimal effective concentration with Phytophthora cinnamomi is no more than 2 µg/mL. The pest or weed control at 16000 g/ha with Rhizoctonia solani stood at 100%. In the experiment with Fusarium oxysporum, the pest or weed control at 8000 g/ha was determined as 50%.
In the case of `CC(C)Nc1cc(N)[n+](C(C)C)c(S(=O)(=O)[O-])c1C#N` [Compound 59], in the experiment with Phytophthora cinnamomi, the minimal effective concentration was greater than 8 µg/mL. The pest or weed control at 16000 g/ha with Rhizoctonia solani worked out at 100%.
With `CCCCCCNc1c(Br)c(N)[n+](CCCCCC)c(Cl)c1C#N` [Compound 67], in the experiment with Monolinia fructicola, the IC50 was no more than 5 µg/mL. The same compound registered a minimal effective concentration with Phytophthora cinnamomi of 2 to 8 µg/mL. Besides, the pest or weed control at 8000 g/ha in the experiment on Fusarium oxysporum is 50%.
On to `CCCCNc1cc(N)[n+](CCCC)c(NCc2ccco2)c1C#N` [Compound 36], for which the IC50 in the experiment with Monolinia fructicola was 5 to 50 µg/mL. Moreover, the minimal effective concentration with Phytophthora cinnamomi lay in the range of 2 to 8 µg/mL. Moreover, the pest or weed control at 16000 g/ha in the experiment on Rhizoctonia solani was 50%.
For the compound `CCCCCCNc1cc(N)[n+](CCCCCC)c(Sc2ccccc2)c1C#N.[Cl-]` [Compound 78, 2-amino-5-cyano-1-n-hexyl-4-n-hexylamino-6-phenylmercapto pyridinium chloride], the IC50 with Monolinia fructicola is no more than 5 µg/mL. In addition, the minimal effective concentration in the experiment with Phytophthora cinnamomi was no more than 2 µg/mL. Besides, the pest or weed control at 16000 g/ha in the experiment on Rhizoctonia solani came out at 50%.
Regarding `CCCCCCCCNc1cc(N)[n+](CCCCCCCC)c(N)c1C#N` [Compound 46], the IC50 with Monolinia fructicola is no more than 5 µg/mL. Further, in the experiment on Phytophthora cinnamomi, the minimal effective concentration was no more than 2 µg/mL. Moreover, in the experiment on Rhizoctonia solani, the pest or weed control at 16000 g/ha is 50%.
Regarding `CCCCCCCCNc1c(C#N)c(NCCCCCC)cc(N)[n+]1CCCCCC` [Compound 44], the IC50 in the experiment on Monolinia fructicola was no more than 5 µg/mL. The same compound displayed a minimal effective concentration with Phytophthora cinnamomi of no more than 2 µg/mL. Besides, in the experiment with Fusarium oxysporum, the pest or weed control at 8000 g/ha was 50%.
Consider `CCCCCCCNc1cc(N)[n+](CCCCCCC)c(Cl)c1C#N` [Compound 13], for which the IC50 in the experiment with Monolinia fructicola is no more than 5 µg/mL. This compound gave a minimal effective concentration in the experiment on Phytophthora cinnamomi of no more than 2 µg/mL. Moreover, in the experiment with Fusarium oxysporum, the pest or weed control at 8000 g/ha worked out at 50%.
In the experiment on Phytophthora cinnamomi, `CNc1cc(N)[n+](C)c(NCc2ccco2)c1C#N` [Compound 23] showed a minimal effective concentration greater than 8 µg/mL. The pest or weed control at 8000 g/ha in the experiment with Fusarium oxysporum turned out to be 100%.
